Results as given in ChEMBL document CHEMBL4251622, “Design, synthesis, and biological evaluation of polo-like kinase 1/eukaryotic elongation factor 2 kinase (PLK1/EEF2K) dual inhibitors for regulating breast cancer cells apoptosis and autophagy” (Eur J Med Chem, 2018).
pIC50: −log10 of the molar value. Calls of active or inactive are those of the source. No cut-off for these calls is given here.

How the values were obtained:
[1] = biological target: Eukaryotic elongation factor 2 kinase (Homo sapiens, UniProt O00418); experiment: Inhibition of GST-tagged EEF2K (unknown origin) using biotinylated EEF2 peptide substrate by HTRF assay
[2] = system: ZR-75-1; experiment: Cytotoxicity against human ZR-75-1 cells after 24 hrs by MTT assay; type: functional, cell-based
[3] = system: SK-BR-3; experiment: Cytotoxicity against human SKBR3 cells after 24 hrs by MTT assay; type: functional, cell-based
[4] = system: BT-483; experiment: Cell cycle arrest in human BT-483 cells assessed as accumulation at sub-G1 phase at 5 to 10 uM after 24 to 72 hrs; type: functional, cell-based
[5] = biological target: Serine/threonine-protein kinase PLK1 (Homo sapiens, UniProt P53350); experiment: Inhibition of PLK1 autophosphorylation in human BT-483 cells at 5 to 10 uM by Western blot analysis; type: cell-based
[6] = biological target: Cyclin-dependent kinase 3 (Homo sapiens) (UniProt Q00526); experiment: Inhibition of wild-type human full length CDK3 (M1 to H305 residues) expressed in bacterial expression system assessed as residual activity at 1 uM by Kinomescan method relative to control
[7] = biological target: Macrophage colony-stimulating factor 1 receptor (Homo sapiens) (UniProt P07333); experiment: Inhibition of wild-type human partial length CSF1R (I564 to S939 residues) expressed in bacterial expression system assessed as residual activity at 1 uM by Kinomescan method relative to control
[8] = biological target: Dual specificity tyrosine-phosphorylation-regulated kinase 1B (Homo sapiens) (UniProt Q9Y463); experiment: Inhibition of wild-type human full length DYRK1B (M1 to S629 residues) expressed in bacterial expression system assessed as residual activity at 1 uM by Kinomescan method relative to control
[9] = biological target: Receptor tyrosine-protein kinase erbB-4 (Homo sapiens) (UniProt Q15303); experiment: Inhibition of wild-type human partial length ERBB4 (L690 to K994 residues) expressed in bacterial expression system assessed as residual activity at 1 uM by Kinomescan method relative to control
[10] = biological target: Mitogen-activated protein kinase 6 (Homo sapiens) (UniProt Q16659); experiment: Inhibition of wild-type human partial length ERK3 (M1 to P413 residues) expressed in bacterial expression system assessed as residual activity at 1 uM by Kinomescan method relative to control
[11] = biological target: Focal adhesion kinase 1 (Homo sapiens) (UniProt Q05397); experiment: Inhibition of wild-type human partial length FAK (D402 to R696 residues) expressed in bacterial expression system assessed as residual activity at 1 uM by Kinomescan method relative to control
[12] = biological target: Receptor-type tyrosine-protein kinase FLT3 (Homo sapiens) (UniProt P36888); experiment: Inhibition of wild-type human partial length FLT3 (V592 to Y969 residues) expressed in bacterial expression system assessed as residual activity at 1 uM by Kinomescan method relative to control
[13] = biological target: Tyrosine-protein kinase JAK2 (Homo sapiens) (UniProt O60674); experiment: Inhibition of wild-type human partial length JAK2 JH1 catalytic domain (A829 to G1132 residues) expressed in mammalian expression system assessed as residual activity at 1 uM by Kinomescan method relative to control
[14] = biological target: Tyrosine-protein kinase JAK3 (Homo sapiens) (UniProt P52333); experiment: Inhibition of wild-type human partial length JAK3 JH1 catalytic domain (I781 to S1124 residues) expressed in mammalian expression system assessed as residual activity at 1 uM by Kinomescan method relative to control
[15] = biological target: Mitogen-activated protein kinase 10 (Homo sapiens) (UniProt P53779); experiment: Inhibition of wild-type human partial length JNK3 (V28 to Q422 residues) expressed in mammalian expression system assessed as residual activity at 1 uM by Kinomescan method relative to control
[16] = biological target: Mast/stem cell growth factor receptor Kit (Homo sapiens) (UniProt P10721); experiment: Inhibition of wild-type human partial length KIT (I571 to D952 residues) expressed in bacterial expression system assessed as residual activity at 1 uM by Kinomescan method relative to control
[17] = biological target: Hepatocyte growth factor receptor (Homo sapiens) (UniProt P08581); experiment: Inhibition of wild-type human partial length MET (D1010 to S1367 residues) expressed in bacterial expression system assessed as residual activity at 1 uM by Kinomescan method relative to control
[18] = biological target: Serine/threonine-protein kinase Nek1 (Homo sapiens) (UniProt Q96PY6); experiment: Inhibition of wild-type human partial length NEK1 (M1 to K278 residues) expressed in bacterial expression system assessed as residual activity at 1 uM by Kinomescan method relative to control
[19] = biological target: Serine/threonine-protein kinase PAK 1 (Homo sapiens) (UniProt Q13153); experiment: Inhibition of wild-type human partial length PAK1 (S149 to H545 residues) expressed in bacterial expression system assessed as residual activity at 1 uM by Kinomescan method relative to control
[20] = biological target: Phosphatidylinositol 4,5-bisphosphate 3-kinase catalytic subunit alpha isoform (Homo sapiens) (UniProt P42336); experiment: Inhibition of wild-type human partial length PIK3CA (R108 to N1068 residues) expressed in mammalian expression system assessed as residual activity at 1 uM by Kinomescan method relative to control
[21] = biological target: Protein kinase C epsilon type (Homo sapiens) (UniProt Q02156); experiment: Inhibition of wild-type human partial length PRKCE (A378 to P737 residues) expressed in mammalian expression system assessed as residual activity at 1 uM by Kinomescan method relative to control
[22] = biological target: Receptor-interacting serine/threonine-protein kinase 1 (Homo sapiens) (UniProt Q13546); experiment: Inhibition of wild-type human partial length RIPK1 (M1 to K305 residues) expressed in bacterial expression system assessed as residual activity at 1 uM by Kinomescan method relative to control
[23] = biological target: SRSF protein kinase 3 (Homo sapiens) (UniProt Q9UPE1); experiment: Inhibition of wild-type human partial length SRPK3 (P41 to P567 residues) expressed in bacterial expression system assessed as residual activity at 1 uM by Kinomescan method relative to control
[24] = biological target: Serine/threonine-protein kinase TNNI3K (Homo sapiens) (UniProt Q59H18); experiment: Inhibition of wild-type human full length TNNI3K (M1 to S835 residues) expressed in bacterial expression system assessed as residual activity at 1 uM by Kinomescan method relative to control
[25] = biological target: Testis-specific serine/threonine-protein kinase 1 (Homo sapiens) (UniProt Q9BXA7); experiment: Inhibition of wild-type human full length TSSK1B (M1 to Q367 residues) expressed in bacterial expression system assessed as residual activity at 1 uM by Kinomescan method relative to control
[26] = biological target: Serine/threonine-protein kinase ULK1 (Homo sapiens) (UniProt O75385); experiment: Inhibition of wild-type human partial length ULK1 (M1 to T309 residues) expressed in mammalian expression system assessed as residual activity at 1 uM by Kinomescan method relative to control
[27] = biological target: Vascular endothelial growth factor receptor 2 (Homo sapiens) (UniProt P35968); experiment: Inhibition of wild-type human partial length VEGFR2 (R787 to P1253 residues) expressed in mammalian expression system assessed as residual activity at 1 uM by Kinomescan method relative to control

Testis-specific serine/threonine-protein kinase 1 (Homo sapiens), sequence (Q9BXA7 whole entry, the tested form may be a part): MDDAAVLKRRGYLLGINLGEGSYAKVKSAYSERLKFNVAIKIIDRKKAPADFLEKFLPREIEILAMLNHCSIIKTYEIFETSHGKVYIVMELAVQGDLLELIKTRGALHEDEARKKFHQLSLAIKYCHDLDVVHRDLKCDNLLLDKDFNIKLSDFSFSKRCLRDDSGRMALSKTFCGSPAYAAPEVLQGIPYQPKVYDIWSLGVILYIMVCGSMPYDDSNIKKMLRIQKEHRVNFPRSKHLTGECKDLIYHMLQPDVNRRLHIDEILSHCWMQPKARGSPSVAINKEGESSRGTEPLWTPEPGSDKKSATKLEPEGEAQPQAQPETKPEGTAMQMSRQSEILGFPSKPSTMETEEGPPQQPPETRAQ
Eukaryotic elongation factor 2 kinase, sequence (O00418 whole entry): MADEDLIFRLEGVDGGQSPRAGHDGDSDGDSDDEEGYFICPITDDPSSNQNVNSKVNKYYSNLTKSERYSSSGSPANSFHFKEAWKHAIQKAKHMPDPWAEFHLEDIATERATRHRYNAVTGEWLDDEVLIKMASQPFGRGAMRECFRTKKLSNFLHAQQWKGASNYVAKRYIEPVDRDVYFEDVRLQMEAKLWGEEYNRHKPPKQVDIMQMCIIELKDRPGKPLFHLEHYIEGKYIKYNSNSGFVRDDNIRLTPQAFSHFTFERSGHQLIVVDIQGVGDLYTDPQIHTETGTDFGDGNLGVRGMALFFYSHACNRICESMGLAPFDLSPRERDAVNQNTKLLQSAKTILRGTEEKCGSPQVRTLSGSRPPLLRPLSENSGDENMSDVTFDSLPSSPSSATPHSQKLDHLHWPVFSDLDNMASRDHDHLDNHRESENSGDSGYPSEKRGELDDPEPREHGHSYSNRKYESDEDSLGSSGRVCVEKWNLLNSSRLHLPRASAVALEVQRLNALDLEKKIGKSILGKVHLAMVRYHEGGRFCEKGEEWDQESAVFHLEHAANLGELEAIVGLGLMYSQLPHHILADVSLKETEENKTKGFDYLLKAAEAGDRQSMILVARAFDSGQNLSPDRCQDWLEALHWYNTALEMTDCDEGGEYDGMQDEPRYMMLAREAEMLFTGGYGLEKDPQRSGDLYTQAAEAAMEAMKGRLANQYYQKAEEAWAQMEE
Receptor-type tyrosine-protein kinase FLT3 (Homo sapiens), sequence (P36888 whole entry, the tested form may be a part): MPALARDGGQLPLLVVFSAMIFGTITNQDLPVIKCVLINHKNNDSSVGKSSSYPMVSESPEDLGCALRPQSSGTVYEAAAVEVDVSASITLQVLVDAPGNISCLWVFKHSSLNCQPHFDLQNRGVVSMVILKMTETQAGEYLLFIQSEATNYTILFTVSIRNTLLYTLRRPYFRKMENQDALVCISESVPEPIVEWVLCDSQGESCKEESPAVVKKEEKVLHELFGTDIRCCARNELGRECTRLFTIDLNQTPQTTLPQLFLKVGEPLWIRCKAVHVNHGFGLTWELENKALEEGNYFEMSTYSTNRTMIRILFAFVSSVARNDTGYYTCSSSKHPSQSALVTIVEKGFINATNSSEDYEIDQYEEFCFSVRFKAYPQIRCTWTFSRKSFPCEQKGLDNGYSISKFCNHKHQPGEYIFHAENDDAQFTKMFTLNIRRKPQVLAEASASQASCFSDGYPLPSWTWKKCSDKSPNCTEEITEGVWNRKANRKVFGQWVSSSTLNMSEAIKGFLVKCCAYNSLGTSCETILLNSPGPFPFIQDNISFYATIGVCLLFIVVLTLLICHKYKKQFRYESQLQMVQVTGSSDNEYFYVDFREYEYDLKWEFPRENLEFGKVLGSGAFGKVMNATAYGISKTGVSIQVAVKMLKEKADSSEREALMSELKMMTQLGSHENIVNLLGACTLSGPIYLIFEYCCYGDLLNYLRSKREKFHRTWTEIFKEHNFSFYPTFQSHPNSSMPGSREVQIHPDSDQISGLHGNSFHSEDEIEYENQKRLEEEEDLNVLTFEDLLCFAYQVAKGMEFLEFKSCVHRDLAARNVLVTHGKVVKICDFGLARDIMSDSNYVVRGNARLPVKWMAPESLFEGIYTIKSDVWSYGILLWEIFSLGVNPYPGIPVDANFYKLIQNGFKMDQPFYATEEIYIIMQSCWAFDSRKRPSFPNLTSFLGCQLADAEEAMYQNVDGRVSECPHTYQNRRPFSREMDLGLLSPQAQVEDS
Receptor tyrosine-protein kinase erbB-4 (Homo sapiens), sequence (Q15303 whole entry, the tested form may be a part): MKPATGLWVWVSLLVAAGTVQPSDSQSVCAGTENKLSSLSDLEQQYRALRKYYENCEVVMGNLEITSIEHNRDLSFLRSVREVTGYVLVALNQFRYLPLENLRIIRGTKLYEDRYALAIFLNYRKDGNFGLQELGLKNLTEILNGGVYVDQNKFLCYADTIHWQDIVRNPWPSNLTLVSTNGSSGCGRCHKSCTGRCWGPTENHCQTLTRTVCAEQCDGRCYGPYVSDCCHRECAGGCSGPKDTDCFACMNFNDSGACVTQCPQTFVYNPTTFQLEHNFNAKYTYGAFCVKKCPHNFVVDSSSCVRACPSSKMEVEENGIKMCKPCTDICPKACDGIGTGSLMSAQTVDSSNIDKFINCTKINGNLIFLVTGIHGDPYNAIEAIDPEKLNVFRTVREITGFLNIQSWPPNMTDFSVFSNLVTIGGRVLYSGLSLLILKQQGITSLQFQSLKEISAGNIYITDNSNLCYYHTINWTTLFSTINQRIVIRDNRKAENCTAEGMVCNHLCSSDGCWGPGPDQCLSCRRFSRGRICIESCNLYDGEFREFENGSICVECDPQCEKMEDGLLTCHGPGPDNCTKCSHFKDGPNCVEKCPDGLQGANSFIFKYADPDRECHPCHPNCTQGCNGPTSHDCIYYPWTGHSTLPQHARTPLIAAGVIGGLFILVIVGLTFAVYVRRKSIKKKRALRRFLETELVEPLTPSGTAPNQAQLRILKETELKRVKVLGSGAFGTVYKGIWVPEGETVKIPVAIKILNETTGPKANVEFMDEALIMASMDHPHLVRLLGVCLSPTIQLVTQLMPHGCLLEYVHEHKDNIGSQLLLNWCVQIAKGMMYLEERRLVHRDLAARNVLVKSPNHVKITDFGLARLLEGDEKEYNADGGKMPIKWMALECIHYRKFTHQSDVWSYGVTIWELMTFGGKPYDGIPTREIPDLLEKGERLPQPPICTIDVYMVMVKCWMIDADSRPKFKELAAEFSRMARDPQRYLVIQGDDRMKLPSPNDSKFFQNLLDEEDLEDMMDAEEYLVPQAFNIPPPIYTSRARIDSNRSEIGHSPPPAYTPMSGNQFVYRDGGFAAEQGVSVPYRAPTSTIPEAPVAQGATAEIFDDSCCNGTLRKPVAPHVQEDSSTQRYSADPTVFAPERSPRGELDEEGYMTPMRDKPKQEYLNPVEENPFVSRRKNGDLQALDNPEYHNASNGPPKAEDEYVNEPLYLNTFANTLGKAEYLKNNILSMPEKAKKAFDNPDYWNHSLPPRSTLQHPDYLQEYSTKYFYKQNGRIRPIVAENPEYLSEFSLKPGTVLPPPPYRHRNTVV
Serine/threonine-protein kinase PLK1, sequence (P53350 whole entry, the tested form may be a part): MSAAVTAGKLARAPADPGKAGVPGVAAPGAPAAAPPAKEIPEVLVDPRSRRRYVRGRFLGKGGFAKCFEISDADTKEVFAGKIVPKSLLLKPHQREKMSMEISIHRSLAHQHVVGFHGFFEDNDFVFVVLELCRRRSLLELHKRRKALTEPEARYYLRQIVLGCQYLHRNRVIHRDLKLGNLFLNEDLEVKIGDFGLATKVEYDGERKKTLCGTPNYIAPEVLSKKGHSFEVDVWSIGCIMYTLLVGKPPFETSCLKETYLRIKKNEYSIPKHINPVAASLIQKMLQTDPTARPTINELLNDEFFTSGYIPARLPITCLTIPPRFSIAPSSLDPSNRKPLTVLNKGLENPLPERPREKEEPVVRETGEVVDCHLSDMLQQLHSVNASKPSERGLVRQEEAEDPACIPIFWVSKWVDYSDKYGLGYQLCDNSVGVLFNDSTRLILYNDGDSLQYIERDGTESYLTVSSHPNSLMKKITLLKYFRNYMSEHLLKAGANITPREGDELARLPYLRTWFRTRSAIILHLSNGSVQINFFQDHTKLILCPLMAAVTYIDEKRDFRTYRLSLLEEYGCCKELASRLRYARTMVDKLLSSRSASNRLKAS
Serine/threonine-protein kinase ULK1 (Homo sapiens), sequence (O75385 whole entry, the tested form may be a part): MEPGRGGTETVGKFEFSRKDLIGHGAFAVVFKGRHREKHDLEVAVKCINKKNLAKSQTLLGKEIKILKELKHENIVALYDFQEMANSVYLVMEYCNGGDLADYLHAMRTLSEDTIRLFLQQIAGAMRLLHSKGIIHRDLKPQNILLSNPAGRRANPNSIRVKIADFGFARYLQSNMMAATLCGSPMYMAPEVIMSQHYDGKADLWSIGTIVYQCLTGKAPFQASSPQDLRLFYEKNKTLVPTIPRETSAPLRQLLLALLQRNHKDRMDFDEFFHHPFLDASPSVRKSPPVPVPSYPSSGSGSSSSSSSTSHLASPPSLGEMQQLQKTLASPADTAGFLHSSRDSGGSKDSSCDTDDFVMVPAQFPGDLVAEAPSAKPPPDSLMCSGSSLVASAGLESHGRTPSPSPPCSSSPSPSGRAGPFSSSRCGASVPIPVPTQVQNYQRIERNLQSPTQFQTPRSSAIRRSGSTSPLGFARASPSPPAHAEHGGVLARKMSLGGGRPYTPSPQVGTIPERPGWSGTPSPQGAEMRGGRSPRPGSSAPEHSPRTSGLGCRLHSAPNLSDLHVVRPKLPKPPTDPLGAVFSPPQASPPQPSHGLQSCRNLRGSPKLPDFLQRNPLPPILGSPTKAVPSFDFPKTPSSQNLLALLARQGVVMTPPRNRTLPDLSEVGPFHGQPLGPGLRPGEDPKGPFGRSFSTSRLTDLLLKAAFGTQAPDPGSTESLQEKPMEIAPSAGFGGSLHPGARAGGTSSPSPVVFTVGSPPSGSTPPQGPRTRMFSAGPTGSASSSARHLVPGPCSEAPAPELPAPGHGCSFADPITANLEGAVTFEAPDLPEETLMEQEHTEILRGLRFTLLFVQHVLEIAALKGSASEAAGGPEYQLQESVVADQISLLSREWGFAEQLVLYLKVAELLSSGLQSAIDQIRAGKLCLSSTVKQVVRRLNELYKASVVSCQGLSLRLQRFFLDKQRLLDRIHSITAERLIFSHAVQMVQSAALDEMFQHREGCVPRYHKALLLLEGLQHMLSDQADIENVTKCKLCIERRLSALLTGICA

CCNc1cc(-c2ccc(NC(=O)Nc3cccc(Cl)c3)cc2C(F)(F)F)ccn1
pIC50 [1]: 6.12 | Activity [2]: Active | Activity [3]: Active | Activity [4]: Active | inhibition [5]: Active | Activity [6]: 87% | Activity [7]: 85% | Activity [8]: 93% | Activity [9]: 92% | Activity [10]: 73% | Activity [11]: 76% | Activity [12]: 100% | Activity [13]: 86% | Activity [14]: 98% | Activity [15]: 64% | Activity [16]: 76% | Activity [17]: 73% | Activity [18]: 60% | Activity [19]: 70% | Activity [20]: 69% | Activity [21]: 67% | Activity [22]: 62% | Activity [23]: 98% | Activity [24]: 70% | Activity [25]: 64% | Activity [26]: 62% | Activity [27]: 60%
